Laboratory results reported in paper PMC6631223, “Chain-Branched Polyhydroxylated Octahydro-1H-Indoles as Potential Leads against Lysosomal Storage Diseases” (Pharmaceuticals, 2019).
Marks after values point to notes of the source that are not given here.

Legend:
Type in all cases: biochemical
[1] = target: T1, α-Mannosidase (jack bean) (Canavalia ensiformis, UniProt C0HJB3); test: Glycosidase inhibition: α-mannosidase (jack bean)
T1 construct: purchased Sigma-Aldrich Co
T1 sequence (C0HJB3 1-981): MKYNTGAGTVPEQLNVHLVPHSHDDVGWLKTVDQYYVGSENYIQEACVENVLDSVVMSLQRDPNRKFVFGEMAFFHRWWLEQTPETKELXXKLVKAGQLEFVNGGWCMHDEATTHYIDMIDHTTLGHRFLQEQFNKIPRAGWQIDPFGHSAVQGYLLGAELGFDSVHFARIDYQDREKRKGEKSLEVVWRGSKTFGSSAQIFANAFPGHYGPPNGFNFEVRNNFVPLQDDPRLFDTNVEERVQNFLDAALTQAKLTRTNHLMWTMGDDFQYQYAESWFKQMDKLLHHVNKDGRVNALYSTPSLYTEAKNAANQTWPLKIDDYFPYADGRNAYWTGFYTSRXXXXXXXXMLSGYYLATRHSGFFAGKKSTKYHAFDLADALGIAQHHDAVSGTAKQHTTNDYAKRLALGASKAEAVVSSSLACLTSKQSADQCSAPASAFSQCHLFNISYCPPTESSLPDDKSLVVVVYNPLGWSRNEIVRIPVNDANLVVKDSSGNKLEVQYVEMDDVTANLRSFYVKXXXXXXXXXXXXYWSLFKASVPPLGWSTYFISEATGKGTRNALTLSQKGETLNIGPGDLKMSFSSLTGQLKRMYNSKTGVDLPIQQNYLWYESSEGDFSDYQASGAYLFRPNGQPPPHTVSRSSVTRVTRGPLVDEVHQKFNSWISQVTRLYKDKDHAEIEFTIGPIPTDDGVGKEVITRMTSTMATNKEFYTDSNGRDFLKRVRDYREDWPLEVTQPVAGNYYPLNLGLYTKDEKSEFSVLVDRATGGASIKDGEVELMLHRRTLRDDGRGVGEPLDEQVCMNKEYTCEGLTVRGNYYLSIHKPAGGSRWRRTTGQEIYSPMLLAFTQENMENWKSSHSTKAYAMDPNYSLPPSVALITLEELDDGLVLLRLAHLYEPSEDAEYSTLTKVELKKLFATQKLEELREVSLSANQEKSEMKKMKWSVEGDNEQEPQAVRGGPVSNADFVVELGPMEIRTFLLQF
From the text: (§1) The enzymes α-glucosidase (from yeast, rice), β-glucosidase (from almonds, bovine liver), α-galactosidase (from coffee beans), β-galactosidase (from bovine liver), α-mannosidase (from jack beans), β-mannosidase (from snails), α-L-fucosidase (from bovine kidney), α-L-rhamnosidase (from Penicillium decumbens), β-glucuronidases (from Escherichia coli), α,α-trehalase (from porcine kidney), amyloglucosidase (from Aspergillus niger), p-nitrophenyl glycosides, and various disaccharides were purchased from Sigma-Aldrich Co. Brush border membranes were prepared from the rat small intestine according to the method of Kessler et al., and were assayed at pH 6.8 for rat intestinal maltase using maltose. For rat intestinal glucosidases and porcine kidney trehalase activities, the reaction mixture (0.2 mL) contained 25 mM substrate and the appropriate amount of enzyme, and the incubations were performed for 10 min at 37 °C. The reaction was stopped by heating at 100 °C for 3 min. […] The absorbance at 505 nm was measured to determine the amount of the released D-glucose. Other glycosidase activities were determined using an appropriate p-nitrophenyl glycoside as substrate at the optimum pH of each enzyme. […] The released p-nitrophenol was measured spectrometrically at 400 nm.

α-L-Rhamnosidase = α-L-Rhamnosidase (Penicillium decumbens, UniProt S7ZS15); test: Glycosidase inhibition: α-L-rhamnosidase (Penicillium decumbens)
Chain of α-L-Rhamnosidase (S7ZS15 entry or part of it): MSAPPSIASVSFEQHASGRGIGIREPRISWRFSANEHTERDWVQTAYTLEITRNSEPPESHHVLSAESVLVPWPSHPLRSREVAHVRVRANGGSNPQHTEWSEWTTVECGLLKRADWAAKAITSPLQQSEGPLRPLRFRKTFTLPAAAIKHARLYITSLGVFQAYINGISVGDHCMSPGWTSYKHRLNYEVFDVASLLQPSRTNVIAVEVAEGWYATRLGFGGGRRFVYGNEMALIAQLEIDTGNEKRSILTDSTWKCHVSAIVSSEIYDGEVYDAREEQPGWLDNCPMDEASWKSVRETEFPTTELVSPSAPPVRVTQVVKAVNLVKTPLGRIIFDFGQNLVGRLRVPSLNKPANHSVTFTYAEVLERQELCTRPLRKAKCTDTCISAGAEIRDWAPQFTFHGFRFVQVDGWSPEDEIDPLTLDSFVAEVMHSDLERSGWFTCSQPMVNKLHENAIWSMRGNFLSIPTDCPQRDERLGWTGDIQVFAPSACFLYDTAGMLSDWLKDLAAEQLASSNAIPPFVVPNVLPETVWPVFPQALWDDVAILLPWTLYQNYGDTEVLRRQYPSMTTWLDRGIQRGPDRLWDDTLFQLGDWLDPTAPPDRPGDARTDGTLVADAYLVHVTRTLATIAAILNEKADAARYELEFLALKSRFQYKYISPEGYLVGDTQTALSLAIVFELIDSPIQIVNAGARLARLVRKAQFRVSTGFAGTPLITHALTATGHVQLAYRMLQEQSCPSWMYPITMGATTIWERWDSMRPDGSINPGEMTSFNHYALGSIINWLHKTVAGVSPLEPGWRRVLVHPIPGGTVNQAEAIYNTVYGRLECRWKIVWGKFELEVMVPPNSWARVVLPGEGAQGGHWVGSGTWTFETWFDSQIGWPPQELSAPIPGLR
From the text: as §1

Amyloglucosidase = target: T2, Amyloglucosidase (Aspergillus niger, UniProt P69328); test: Glycosidase inhibition: amyloglucosidase (Aspergillus niger); conditions: amyloglucosidase, Aspergillus niger; 1000 μM
T2 construct: purchased Sigma-Aldrich Co
T2 sequence (P69328 25-640): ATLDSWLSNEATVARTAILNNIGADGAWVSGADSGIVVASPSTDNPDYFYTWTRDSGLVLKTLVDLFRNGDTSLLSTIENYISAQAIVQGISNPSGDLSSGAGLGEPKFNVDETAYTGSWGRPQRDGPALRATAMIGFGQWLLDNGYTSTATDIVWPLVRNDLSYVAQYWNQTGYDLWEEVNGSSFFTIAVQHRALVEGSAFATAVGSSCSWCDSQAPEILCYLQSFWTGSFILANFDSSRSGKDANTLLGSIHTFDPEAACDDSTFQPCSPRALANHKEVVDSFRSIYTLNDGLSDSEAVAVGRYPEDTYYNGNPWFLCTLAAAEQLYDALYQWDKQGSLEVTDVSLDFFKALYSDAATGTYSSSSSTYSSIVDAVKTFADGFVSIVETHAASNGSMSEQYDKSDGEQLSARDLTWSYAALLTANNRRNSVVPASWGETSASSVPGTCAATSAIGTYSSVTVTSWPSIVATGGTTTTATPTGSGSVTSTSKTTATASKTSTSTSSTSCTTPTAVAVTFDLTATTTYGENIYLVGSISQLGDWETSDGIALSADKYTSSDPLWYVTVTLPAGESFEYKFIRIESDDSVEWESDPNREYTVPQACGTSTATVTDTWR
From the text: (§2) The enzymes α-glucosidase (from yeast, rice), β-glucosidase (from almonds, bovine liver), α-galactosidase (from coffee beans), β-galactosidase (from bovine liver), α-mannosidase (from jack beans), β-mannosidase (from snails), α-L-fucosidase (from bovine kidney), α-L-rhamnosidase (from Penicillium decumbens), β-glucuronidases (from Escherichia coli), α,α-trehalase (from porcine kidney), amyloglucosidase (from Aspergillus niger), p-nitrophenyl glycosides, and various disaccharides were purchased from Sigma-Aldrich Co. Brush border membranes were prepared from the rat small intestine according to the method of Kessler et al., and were assayed at pH 6.8 for rat intestinal maltase using maltose. For rat intestinal glucosidases and porcine kidney trehalase activities, the reaction mixture (0.2 mL) contained 25 mM substrate and the appropriate amount of enzyme, and the incubations were performed for 10 min at 37 °C. The reaction was stopped by heating at 100 °C for 3 min. After centrifugation (600 g; 10 min), 0.035 mL of the resulting reaction mixture were added to 2.1 mL of the Glucose CII-test Wako (Wako Pure Chemical Ind., Osaka, Japan). The absorbance at 505 nm was measured to determine the amount of the released D-glucose. Other glycosidase activities were determined using an appropriate p-nitrophenyl glycoside as substrate at the optimum pH of each enzyme. The reaction mixture (0.2 mL) contained 2 mM of the substrate and the appropriate amount of enzyme. The reaction was stopped by adding 0.4 mL of 400 mM Na2CO3. The released p-nitrophenol was measured spectrometrically at 400 nm.

[2] = target: T3, β-Glucosidase (bovine liver) (Bos taurus, UniProt F1MNT6); test: Glycosidase inhibition: β-glucosidase (bovine liver)
T3 sequence (F1MNT6 1-469): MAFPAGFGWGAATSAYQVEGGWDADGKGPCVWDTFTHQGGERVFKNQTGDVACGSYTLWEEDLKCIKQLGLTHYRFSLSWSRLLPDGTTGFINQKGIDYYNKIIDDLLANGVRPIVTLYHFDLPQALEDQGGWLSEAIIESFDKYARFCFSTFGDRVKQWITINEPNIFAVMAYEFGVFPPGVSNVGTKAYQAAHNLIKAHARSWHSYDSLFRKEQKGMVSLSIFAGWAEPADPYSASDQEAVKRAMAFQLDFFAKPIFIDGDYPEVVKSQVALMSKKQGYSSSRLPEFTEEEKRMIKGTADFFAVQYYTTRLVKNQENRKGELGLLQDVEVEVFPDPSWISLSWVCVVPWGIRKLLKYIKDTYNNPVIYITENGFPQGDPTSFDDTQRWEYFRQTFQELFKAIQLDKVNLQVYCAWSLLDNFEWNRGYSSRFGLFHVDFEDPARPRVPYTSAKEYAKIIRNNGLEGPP
From the text: as §1

β-Mannosidase (snail) = test: Glycosidase inhibition: β-mannosidase (snail); conditions: 1000 μM
From the text: as §2

SMILES | inhibition at 1000 µM [1] | inhibition at 1000 µM (α-L-Rhamnosidase) | inhibition at 1000 µM (Amyloglucosidase) | inhibition at 1000 µM [2] | inhibition % at 1000 μM (β-Mannosidase (snail))
CC[C@H]1CN[C@H]2C[C@@H](O)[C@H](O)[C@@H](O)[C@H]12 [Compound 13, (3R,3aR,4S,5S,6R,7aS)-3-ethyloctahydro-1H-indole-4,5,6-triol] | 0% | 0% | 0% | 21.7% | 2.3% ^a
CC[C@@H]1CN[C@H]2C[C@@H](O)[C@H](O)[C@@H](O)[C@H]12 [Compound 10, (3S,3aR,4S,5S,6R,7aS)-3-Ethyloctahydro-1H-indole-4,5,6-triol] | 0% | 0% | 0% | 0% | 0% ^a
